Assay results: patent US20220289794A1, “SYNTHETIC ANTIMICROBIAL PEPTIDES” (priority 2019, published 2022)

Experiments:
[1] = test system: Enterococcus faecalis ATCC 29212; settings: E. faecalis ATCC 29212
[2] = test system: B. subtilis (ATCC-6633); assay: Broad-spectrum activity against Gram-Positive bacteria (MIC); assay type: cell-based; set-up: unit not given here
[3] = test system: Methicillin-resistant Staphylococcus aureus MRSA (ATCC BAA-1556); settings: MRSA ATCC BAA-1556
[4] = test system: Enterococcus faecium ATCC 27270; settings: E. faecium ATCC 27270
[5] = test system: Pseudomonas aeruginosa (ATCC 27883); settings: P. aeruginosa ATCC 27883
[6] = test system: P. aeruginosa (ATCC 10145); assay: Broad-spectrum activity against Gram-Negative bacteria (MIC); assay type: cell-based; settings: Table 16, Gram-negative panel
[7] = test system: E. coli (ATCC BAA-2452); assay: as above; assay type: cell-based; settings: Table 16, Gram-negative panel
[8] = test system: Enterococcus faecalis ATCC 51575; settings: E. faecalis ATCC 51575
[9] = test system: A. baumannii (ATCC BAA-1605); assay: Broad-spectrum activity against Gram-Negative bacteria (MIC); assay type: cell-based; settings: Table 16, Gram-negative panel
[10] = test system: S. aureus ATCC 29213; settings: S. aureus ATCC 29213
[11] = test system: B. cereus (ATCC-13061); assay: Broad-spectrum activity against Gram-Positive bacteria (MIC); assay type: cell-based; set-up: unit not given here
[12] = test system: Escherichia coli (ATCC 25922); settings: E. coli ATCC 25922
[13] = test system: Streptococcus pneumoniae ATCC 51938; settings: S. pneumoniae ATCC 51938
[14] = test system: Klebsiella pneumoniae ATCC 13883; settings: Table 16, Gram-negative panel
[15] = test system: P. aeruginosa (ATCC BAA-1744); assay: Broad-spectrum activity against Gram-Negative bacteria (MIC); assay type: cell-based; settings: Table 16, Gram-negative panel
[16] = test system: Klebsiella pneumoniae (ATCC BAA-1705); settings: Table 16, Gram-negative panel
[17] = test system: Streptococcus pneumoniae ATCC 49619; settings: S. pneumoniae ATCC 49619
[18] = test system: Enterococcus faecium ATCC 700221; settings: E. faecium ATCC 700221

Substance	Broad-spectrum activity E. faecalis (ATCC 29212) [1]	Broad-spectrum activity B. subtilis (ATCC-6633) [2]	MIC MRSA ATCC BAA-1556 [3] [µg/mL]	Broad-spectrum activity E. faecium (ATCC 27270) [4]	MIC P. aeruginosa ATCC 27883 [5] [µg/mL]	MIC P. aeruginosa (ATCC 10145) [6] [µg/mL]	MIC E. coli (ATCC BAA-2452) [7] [µg/mL]	Broad-spectrum activity E. faecalis (ATCC 51575) [8]	MIC A. baumannii (ATCC BAA-1605) [9] [µg/mL]	MIC S. aureus ATCC 29213 [10] [µg/mL]	Broad-spectrum activity B. cereus (ATCC-13061) [11]	MIC E. coli ATCC 25922 [12] [µg/mL]	Broad-spectrum activity S. pneumoniae (ATCC 51938) [13]	MIC K. pneumonia (ATCC 13883) [14] [µg/mL]	MIC P. aeruginosa (ATCC BAA-1744) [15] [µg/mL]	MIC K. pneumonia (ATCC BAA-1705) [16] [µg/mL]	Broad-spectrum activity S. pneumoniae (ATCC 49619) [17]	Broad-spectrum activity E. faecium (ATCC 700221) [18]
c[Arg-Arg-arg-arg-naI-trp-naI] [IFX-137]	6.2	1.5	3.1	3.1	32	25	25	6.2	12.5	3.1	3.1	16	12.5	50	25	50	25	3.1
c[arg-arg-arg-arg-dip-Trp-dip] [IFX-095]	6.2	1.5	3.1	3.1	12.5	25	25	12.5	12.5	3.1	3.1	12.5	12.5	50	25	12.5	50	6.2
c[Arg-Arg-Arg-Arg-dip-Dip-Dip] [IFX-062]	6.2	1.5	3.1	3.1	6.2	25	6.2	12.5	6.2	3.1	3.1	12.5	12.5	50	12.5	12.5	50	3.1
c[arg-arg-arg-arg-dip-dip-dip] [IFX-067]	6.2	1.5	1.5	3.1	12.5	50	12.5	6.2	12.5	3.1	3.1	6.2	12.5	> 50	25	25	25	3.1
c[Arg-arg-Arg-Arg-Dip-Trp-Dip] [IFX-093]	12.5	1.5	3.1	6.2	12.5	25	6.2	12.5	12.5	3.1	6.2	12.5	25	50	25	12.5	50	6.2
c[Arg-Arg-Arg-Arg-Dip-Dip-dip] [IFX-060]	3.1	1.5	1.5	3.1	12.5	25	12.5	12.5	6.2	1.5	3.1	6.2	12.5	50	12.5	12.5	25	1.5
c[Arg-Arg-Arg-Arg-Dip-Trp-dip] [IFX-088]	12.5	1.5	3.1	3.1	12.5	25	12.5	12.5	12.5	3.1	6.2	12.5	12.5	50	50	25	25	12.5
c[arg-arg-arg-arg-Dip-Trp-Dip] [IFX-099]	6.2	1.5	1.5	3.1	12.5	25	25	12.5	12.5	1.5	3.1	6.2	12.5	50	25	25	25	6.2
c[Arg-Arg-Arg-arg-Dip-Trp-Dip] [IFX-091]	6.2	1.5	3.1	3.1	12.5	25	12.5	12.5	12.5	3.1	3.1	12.5	12.5	50	25	12.5	50	6.2
c[arg-Arg-arg-Arg-dip-Trp-dip] [IFX-096]	12.5	3.1	3.1	3.1	6.2	50	12.5	12.5	25	3.1	6.2	6.2	25	50	50	25	25	6.2
